Bridge positions count the residues as written; N and C are the ends. Ends that are not written are not given here. Peptide text beside a SMILES is read from it.
Legend:
α5β1 integrin [1] = test: Inhibition of α5β1-mediated cell attachment to fibronectin; type: cell-based, human
Excerpt: (§1) Cell lines expressing different integrins were used to examine peptide inhibition of integrin function. A human melanoma cell line, C8161, a fibroblast cell line, WI-38, and an osteosarcoma cell line, MG-63 (described by Seftor et al., Canc. Res., 53:3411–3415 (1993); Vogel et al., J. Biol. Chem., 265:5934–5937 (1990); and Pytela et al. (1985), supra, respectively, each of which is incorporated herein by reference) attach to fibronectin through α5β1 integrin, as does B2/α27, a CHO cell line transfected with human α5. B2/C1, the control parental CHO line (Bauer et al., J. Cell. Biol. 116:477–487 (1992), which is incorporated herein by reference), attaches via […]. CHO cells C11 and NIH 3T3 cells express the endogenous Chinese hamster and mouse α5β1 integrins, respectively. The human melanoma cells, A375-M, attach to fibronectin through both α5β1 and α4β1 integrins (Mould et al., J. Biol. Chem. 265:4020–4024 (1990), which is incorporated herein by reference). CHO cell line B2/v7 express the αvβ1 integrin (Zhang et al., J. Cell. Biol. 122:235–242 (1993), which is incorporated herein by reference). The vitronectin-binding integrins αvβ1 and αvβ3 were assayed using the cell line HT-29 and IMR-90, respectively (Koivunen et al., J. Biol. Chem. 268: 20205–20210 (1993)).
(§2) Cell lines expressing fibronectin-binding integrins were used to determine peptide activities against these integrins in the cell attachment assay described by Ruoslahti et al., Meth. Enzymol., 144:803–831 (1982), which is incorporated herein by reference. Human plasma fibronectin was iodinated as described by Morla and Ruoslahti, J. Cell Biol., 118:421–429 (1992), which is incorporated herein by reference. Vitronectin was obtained from Telios Pharmaceuticals (San Diego, Calif.). […] Peptide was coated on plastic by incubating at 37° C. for 2 hours in phosphate buffered saline containing 0.25% glutaraldehyde to crosslink the peptide. Free binding sites on the plastic were blocked using BSA. Approximately 1×10^5 cells per well were allowed to attach for 1 hour in the presence or absence of competing peptides. Bound cells were quantitated by staining with 0.1% amido black.
Inhibition of cell attachment mediated by either fibronectin- or vitronectin-binding integrins was performed to determine peptide specificity in a biologically relevant system. The assays and cell lines were performed as described above. FIGS. 5 and 6 show the results of cell attachment mediated by the fibronectin binding integrins α5β1 and αvβ1.

α5β1 integrin [2] = biological target: T1, α5β1 integrin (Homo sapiens, UniProt P05556+P08648); test: Inhibition of peptide-displaying phage binding to α5β1 integrin by synthetic peptides; conditions: for binding affinity for α5β1: high binding affinity defined as IC50 of 1×10^−7 M or less in a competitive binding assay
T1 construct: The αvβ3, αvβ5 and α5β1 integrins were isolated from human placental extracts; from tissue; host or cells: human placenta
T1 sequence (P08648 42-894 limits assumed): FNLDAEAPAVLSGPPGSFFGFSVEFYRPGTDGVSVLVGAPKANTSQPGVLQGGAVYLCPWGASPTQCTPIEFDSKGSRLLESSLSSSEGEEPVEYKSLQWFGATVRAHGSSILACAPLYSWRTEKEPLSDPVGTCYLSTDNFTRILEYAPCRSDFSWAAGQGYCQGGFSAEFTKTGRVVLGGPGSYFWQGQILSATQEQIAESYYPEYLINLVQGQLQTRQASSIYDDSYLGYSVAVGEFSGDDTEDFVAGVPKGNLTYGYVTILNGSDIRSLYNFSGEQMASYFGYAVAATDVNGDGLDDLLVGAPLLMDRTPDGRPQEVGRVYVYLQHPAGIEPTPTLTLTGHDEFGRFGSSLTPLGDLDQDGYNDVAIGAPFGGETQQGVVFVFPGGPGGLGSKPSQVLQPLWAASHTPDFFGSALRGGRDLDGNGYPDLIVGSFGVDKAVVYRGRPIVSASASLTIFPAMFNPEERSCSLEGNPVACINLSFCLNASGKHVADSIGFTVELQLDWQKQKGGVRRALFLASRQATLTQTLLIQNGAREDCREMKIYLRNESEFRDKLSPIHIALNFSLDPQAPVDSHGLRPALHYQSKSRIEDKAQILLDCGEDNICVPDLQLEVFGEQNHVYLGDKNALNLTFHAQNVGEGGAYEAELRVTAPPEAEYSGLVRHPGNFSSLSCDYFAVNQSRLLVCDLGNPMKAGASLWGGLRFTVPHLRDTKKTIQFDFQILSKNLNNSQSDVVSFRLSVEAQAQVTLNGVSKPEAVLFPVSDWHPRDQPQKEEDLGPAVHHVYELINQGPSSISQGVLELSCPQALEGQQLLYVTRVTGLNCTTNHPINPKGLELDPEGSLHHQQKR
T1 sequence (P08648 895-1049 partner limits assumed): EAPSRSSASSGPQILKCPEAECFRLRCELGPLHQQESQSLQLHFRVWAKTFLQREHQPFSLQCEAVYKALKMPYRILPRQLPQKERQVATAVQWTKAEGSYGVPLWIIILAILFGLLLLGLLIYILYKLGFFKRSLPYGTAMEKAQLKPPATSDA
T1 sequence (P05556 21-798): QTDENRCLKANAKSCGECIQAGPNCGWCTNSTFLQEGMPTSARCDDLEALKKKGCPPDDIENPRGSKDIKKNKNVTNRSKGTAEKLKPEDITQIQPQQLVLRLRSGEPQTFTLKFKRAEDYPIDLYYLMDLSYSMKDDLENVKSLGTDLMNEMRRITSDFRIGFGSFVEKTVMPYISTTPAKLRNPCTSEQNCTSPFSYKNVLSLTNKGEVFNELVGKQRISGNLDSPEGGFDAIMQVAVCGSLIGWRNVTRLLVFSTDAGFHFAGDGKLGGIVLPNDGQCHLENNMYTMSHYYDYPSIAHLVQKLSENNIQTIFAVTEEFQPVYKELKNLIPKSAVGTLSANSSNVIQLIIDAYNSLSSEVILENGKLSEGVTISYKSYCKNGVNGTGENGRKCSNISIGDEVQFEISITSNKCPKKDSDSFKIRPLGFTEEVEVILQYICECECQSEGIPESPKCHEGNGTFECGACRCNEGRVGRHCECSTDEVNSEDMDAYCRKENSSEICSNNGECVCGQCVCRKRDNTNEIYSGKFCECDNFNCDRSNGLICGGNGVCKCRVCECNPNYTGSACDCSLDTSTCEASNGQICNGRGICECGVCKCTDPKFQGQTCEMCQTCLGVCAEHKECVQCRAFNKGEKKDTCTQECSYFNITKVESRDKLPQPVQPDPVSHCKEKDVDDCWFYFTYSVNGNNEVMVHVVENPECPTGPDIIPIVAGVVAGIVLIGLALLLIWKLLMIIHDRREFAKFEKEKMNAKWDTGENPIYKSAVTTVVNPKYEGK
Method: Phage clone containing the RGDGW [SEQ ID NO:9] sequence was incubated for 1 hour in integrin-coated microliter wells in the presence of the competing peptides. After extensive washing, the phage remained bound were determined as described in Example XII.
In addition, most of the phage-binding activity in the αvβ3 preparation was captured into microliter wells coated with antibodies against the αv or β3 subunits as described previously (Koivunen et al., J. Biol. Chem., 268:20205–10 (1993). The αIIbβ3 integrin was isolated from outdated platelets (Pytela et al., Science, 231:1559–1562 (1986)).
Binding of individual cloned phage to integrins was studied in microliter wells as described in Koivunen et al., J. Cell. Biol., 124:373–380 (1994). Phage binding to α5β1 and αvβ3 were assayed in TBS buffer containing 1% BSA and 1 mM MnCl2 and binding to αvβ5 in the presence of 1 mM CaCl2. Phage that were bound were determined by their ability to infect F-pilus positive K91kan bacteria. Bacteria were grown overnight in microliter wells in the presence of tetracycline and the absorbance indicative of bacterial growth was read at 600 nm with an ELISA plate reader.
Relative affinities of the […] [SEQ ID NO:12] and CRGDC [SEQ ID NO:37] peptides were determined by inhibition of binding of peptide-displaying phage to α5β1 integrin. Peptide-displaying phage were constructed as described by Scott and Smith, Science 249:386–390 (1990) and Example IV. Microwell plates were coated with various integrins as described by Koivunen et al., J. Biol. Chem., 268:20205–10 (1993) and Example II.
The binding of […] [SEQ ID NO:12]-containing peptide ligands to α5β1 integrin was performed as follows. RRETAWA [SEQ ID NO:8]-displaying phage were incubated for 1 hour in the presence of various concentrations of the cyclic peptides containing […] [SEQ ID NO:12] and containing CRGDC [SEQ ID NO:37] in microliter wells coated with the α5β1 integrin. Binding was quantitated by adding K91kan bacteria directly to the wells and growing the bacteria overnight at room temperature (Smith and Scott, Meth. Enzymol., 217:228–257 (1993), which is incorporated herein by reference).
Additional peptide motifs were tested as follows. ELRGDGW-displaying [SEQ ID NO:4] phage were added together with various concentrations of the cyclic peptides containing […] [SEQ ID NO:12] and containing CRGDC [SEQ ID NO:37] into microliter wells coated with the α5β1 integrin, incubated for 1 hour at room temperature and binding to wells was quantitated.

α5β1 integrin [3] = test: Inhibition of attachment of CHO C11 cells to fibronectin; type: cell-based, Chinese hamster
Excerpt: as §1, with “The vitronectin-binding integrins αvβ1 and αvβ3 were assayed using the cell line HT-29 and IMR-90, respectively (Koivunen et al., J. Biol. Chem. 268: 20205–20210 (1993)).” left out
Cell lines expressing fibronectin-binding integrins were used to determine peptide activities against these integrins in the cell attachment assay described by Ruoslahti et al., Meth. […] Bound cells were quantitated by staining with 0.1% amido black.

αvβ1 integrin = test: Inhibition of αvβ1-mediated cell attachment to fibronectin; type: cell-based; conditions: less active, FIG. 6
Excerpt: as §1, with “The vitronectin-binding integrins αvβ1 and αvβ3 were assayed using the cell line HT-29 and IMR-90, respectively (Koivunen et al., J. Biol. Chem. 268: 20205–20210 (1993)).” left out
Cell lines expressing fibronectin-binding integrins were used to determine peptide activities against these integrins in the cell attachment assay described by Ruoslahti et al., Meth. […] Bound cells were quantitated by staining with 0.1% amido black. […]

α5β1 integrin [4] = test: Cell attachment to immobilized […] peptide (B2/α27 vs B2/Cl cells); type: cell-based, human
Excerpt: as §2
Target sequence in this assay (P08648 42-894 limits assumed): as the sequence (P08648 42-894 limits assumed) above
Target sequence in this assay (P08648 895-1049 limits assumed): as the sequence (P08648 895-1049 partner limits assumed) above
In addition to the inhibition of cell attachment to natural ligands, attachment and inhibition assays were performed using the […] [SEQ ID NO:6] peptide as substrate. The microliter well were coated with […] [SEQ ID NO:6] using glutaraldehyde as described above. Briefly, peptide was coated on plastic by incubating at 37° C. for 2 hours in phosphate buffered saline containing 0.25% glutaraldehyde to crosslink the peptide and free binding sites on the plastic were blocked using BSA. The wells were then saturated with BSA followed by the addition of 50,000 B2/α27 or B2/Cl cells in the presence or absence of the indicated inhibitor. […] Bound cells were quantitated by staining with 0.1% amido black.

Compound: C[C@H](N)C(=O)N[C@H]1CSSC[C@@H](C(=O)NCC(=O)O)NC(=O)[C@H](Cc2ccccc2)NC(=O)[C@@H]2CSSC[C@H](NC(=O)[C@H](CC(=O)O)NC1=O)C(=O)N[C@@H](CCCNC(=N)N)C(=O)NCC(=O)N[C@@H](CC(=O)O)C(=O)N2 (H-ACDCRGDCFCG-OH; disulfide 2-10, 4-8)
- activity toward α5β1 compared to *CRGDC* (α5β1 integrin [1]; cell attachment to fibronectin): significantly decreased activity
- activity toward α5β1 compared to linear GRGDSP (α5β1 integrin [1]; cell attachment to fibronectin): only slightly better

Compound: A*CPSRLDSPC*G (ACPSRLDSPCG; disulfide 2-10 (inferred))
- inhibition of RGD phage binding to α5β1 (α5β1 integrin [2]; RGDGW phage, FIG. 9): no inhibition

Compound: GACRRETAWACGA
- blocking of attachment of CHO C11 cells to fibronectin (α5β1 integrin [3]): could not block
- activity against αvβ1 relative to CELRGDGWC (αvβ1 integrin): about 40 ×
- activity against αvβ1 relative to the cyclic RGD peptide (αvβ1 integrin): greater than 100 ×
- inhibition of cell attachment to a 110 kDa fragment of fibronectin (α5β1 integrin [1]; 110 kDa fragment containing the cell attachment domain): inhibited
- inhibition of attachment of A375-M cells to fibronectin (α5β1 integrin [1]; A375-M cells (also express α4β1)): only partially inhibited
- efficiency at inhibiting binding to α5β1 compared with cyclic CRGDCL peptide (α5β1 integrin [1]; B2/α27 cells, fibronectin, FIG. 5): more efficient
- binding activity following reduction of the disulfide bond and alkylation of the cysteine residues (α5β1 integrin [1]; linearized vs cyclic peptide): greatly decreased
- reduction of activity after reduction and alkylation of the disulfide bond (α5β1 integrin [1]; linearized vs cyclic peptide): about 50 ×
- inhibition of binding of ELRGDGW-displaying phage to α5β1 integrin (α5β1 integrin [2]; ELRGDGW-displaying phage, CRRETAWAC compared with CRGDC, FIG. 2): approximately the same degree
- efficiency of inhibition of RRETAWA-displaying phage binding to α5β1 relative to CRGDC containing peptides (α5β1 integrin [2]; RRETAWA-displaying phage, comparator CRGDC, FIG. 4): at least 10 times
- binding affinity for α5β1 (α5β1 integrin [2]; listed as CRRETAWAC): high binding affinity
- binding affinity for α5β1 (α5β1 integrin [2]; listed as GA*CRRETAWAC*GA): high affinity
- promotion of cell adhesion by immobilized peptide (α5β1 integrin [4]; B2/α27 compared with B2/Cl cells, FIG. 8): promoted α5β1-mediated adhesion
- attachment of cell lines lacking these integrins or expressing non-human α5β1 to immobilized peptide (α5β1 integrin [4]; immobilized peptide): did not attach
- inhibition of B2/α27 attachment to immobilized RRETAWA-containing peptide (α5β1 integrin [4]; inhibitor at 1 mM, FIG. 8): inhibited
